The record followed here is patent US4145430A, “Beta-lactam compounds, preparation and use” (Beecham Group Limited, priority 1977, dated 1979).

A word on the IC50: it is the midpoint of a concentration-inhibition curve. For orientation: zone of inhibition means the extent of the growth-free halo in a diffusion test.

SMILES strings stand for the structures.

In data set [1] the target is T1, β-lactamase from E. coli JT4 (Escherichia coli, UniProt P62593).
T1 construct: host or cells: E. coli JT4 (the producing strain)
T1 sequence (P62593 24-286 limits assumed): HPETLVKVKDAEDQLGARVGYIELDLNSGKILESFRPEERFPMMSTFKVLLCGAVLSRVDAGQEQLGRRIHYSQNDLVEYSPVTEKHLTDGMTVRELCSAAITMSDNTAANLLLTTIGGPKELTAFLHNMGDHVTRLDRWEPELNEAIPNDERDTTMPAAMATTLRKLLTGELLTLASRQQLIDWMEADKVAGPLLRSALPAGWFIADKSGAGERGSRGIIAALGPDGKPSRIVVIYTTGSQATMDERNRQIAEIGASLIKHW
Description: β-lactamase inhibition I50. Type of data set: biochemical. Here is the method:
(§1) The I50 values obtained for the product of this example against certain common gram positive and gram negative bacteria were as follows:
(§2) The compound from Example 1 was a potent inhibitor of β-lactamase enzymes as illustrated in the following Table. I50 values were determined using the process described in Belgium Pat. No. 827,926.

In data set [2] the target is T2, β-lactamase from Enterobacter cloacae P99 (Enterobacter cloacae, UniProt P05364).
T2 construct: host or cells: Enterobacter cloacae P99 (the producing strain)
T2 sequence (P05364 21-381): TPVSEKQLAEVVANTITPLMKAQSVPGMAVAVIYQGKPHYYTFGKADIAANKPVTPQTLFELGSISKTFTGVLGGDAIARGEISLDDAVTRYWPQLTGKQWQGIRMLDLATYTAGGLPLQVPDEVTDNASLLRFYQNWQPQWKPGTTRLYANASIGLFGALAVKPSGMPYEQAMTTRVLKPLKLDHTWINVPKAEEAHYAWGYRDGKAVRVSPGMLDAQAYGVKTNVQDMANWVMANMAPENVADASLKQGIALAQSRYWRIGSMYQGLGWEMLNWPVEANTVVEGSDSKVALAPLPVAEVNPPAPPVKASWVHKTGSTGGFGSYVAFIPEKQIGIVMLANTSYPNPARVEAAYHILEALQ
Put plainly: β-lactamase inhibition I50. It counts as biochemical. Here is the method:
as §1, §2

Data set [3] has as its target β-lactamase from Proteus mirabilis C889. Description: β-lactamase inhibition I50. It counts as biochemical. Here is the method:
as §1, §2

The target of data set [4] is T3, β-lactamase from Ps. aeruginosa Dalgleish (Pseudomonas aeruginosa, UniProt P16897).
T3 construct: host or cells: Pseudomonas aeruginosa Dalgleish (the producing strain)
T3 sequence (P16897 18-288): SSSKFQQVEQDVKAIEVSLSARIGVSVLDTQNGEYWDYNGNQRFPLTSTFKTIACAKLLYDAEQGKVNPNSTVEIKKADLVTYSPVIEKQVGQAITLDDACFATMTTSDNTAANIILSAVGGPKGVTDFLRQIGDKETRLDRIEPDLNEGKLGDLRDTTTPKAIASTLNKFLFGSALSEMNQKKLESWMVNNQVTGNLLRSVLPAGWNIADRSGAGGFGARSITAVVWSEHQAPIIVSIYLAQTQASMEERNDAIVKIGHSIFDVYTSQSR
Description: β-lactamase inhibition I50. Type of data set: biochemical. Here is the method:
as §2

Data set [5] addresses β-lactamase from Pseudomonas aeruginosa A. Put plainly: β-lactamase inhibition I50. Type of data set: biochemical. As to the method:
as §2

Data set [6] can be described thus: Stability when free of solvent. Type of data set: physicochemical. As to the method:
The compound of the formula (V) tends to polymerise when free of solvent at room temperature so that it must either be stored in solution (optionally with hydroquinone) or at a low temperature. Preferably the compound of the formula (V) is used shortly after its preparation.
For determination of spectroscopic and biological properties aliquots of the toluene solution were treated in a manner similar to that described above for measurement of the nmr spectrum. The title compound was characterised by the following spectroscopic properties. λmax (EtOH): 277.5 nm. .nu.max (CHCl3): 1797 (β-lactam C= O ), 1670 and 1640 (C=C)cm^-1. δ (CDCl3): 3.36 (d, J 17Hz, 1H, C(6)H), 3.63 (dd, J 17, 2Hz, 1H, C(6)H), 5.22 (dd, J 10.5, 1.0Hz, 1H, olefinic H), 5.49 (dd, J 16, 1.0Hz, 1H, olefinic H), 5.80 (s, 2H, C(5)H and C(2)H), 6.10 (dd, J 16, 10.5Hz, 1H, olefinic H).

For data set [7], the target named is lactamase from Ps. aeruginosa. Put plainly: β-lactamase inhibition I50. It counts as biochemical. Set-up: unit not given here. The source says: The I50 values obtained for the product of this example against certain common gram positive and gram negative bacteria were as follows: […]
Data set [8] has as its system Candida albicans BRL 1003. Description: Antifungal activity, paper tape on seeded blood agar base plate. Type of data set: cell-based. The settings on record: BRL1003; loading of 250 μg on paper tape, Candida albicans BRL 1003, 28° C., 24 hours; read-out: zone of inhibition diameter. As to the method:
The Z-isomer is able to inhibit the growth of Candida albicans. Thus, a loading of 250 μg of the Z-isomer on a paper tape which was contacted with a blood agar base plate seeded with Candida albicans BRL 1003 and incubated at 28° C. for 24 hours produced a zone of inhibition with diameter 22.1 mm.

Consider `C=CC1=CN2C(=O)C[C@H]2O1` [Example 1, (5R)-7-oxo-3-vinyl-4-oxa-1-azabicyclo[3.2.0]hept-2-ene], for which the IC50 in data set [1] is 408 nM; in data set [2] (β-lactamase from Enterobacter cloacae P99), 190 nM; in data set [4], 292 nM. For the same molecule, the I50 in data set [3] came to 0.058 µg/mL; in data set [5], 0.06 µg/mL. Besides, the “stability when free of solvent” value in data set [6] was “readily polymerises”.

As to `CC=C1CN2C(=O)C[C@H]2O1` [Example 4, (5R)-3-ethylidene-4-oxa-1-azabicyclo[3.2.0]heptan-7-one], the half-maximal inhibitory concentration (IC50) is 1580 nM in data set [1] and 2010 nM in data set [2] (lactamase from Enterobacter cloacae P 99). Also, the values for the I50 in data set [3] and in data set [7] were 1.6 µg/mL and 0.86, respectively.

Regarding `C/C=C1/CN2C(=O)C[C@H]2O1` [Z-isomer, Z-(5R)-3-ethylidene-4-oxa-1-azabicyclo[3.2.0]heptan-7-one], the zone of inhibition at 250 µg/disc in data set [8] is 22.1 mm.
